{
  "source": "patent US20240271096A1",
  "about": "“EFFICIENT DIFFERENTIATION OF SECOND HEART FIELD CARDIAC PROGENITOR CELLS AND RIGHT VENTRICLE CARDIOMYOCYTES FROM HUMAN PLURIPOTENT STEM CELLS” (Wisconsin Alumni Research Foundation, priority 2023, published 2024)",
  "system": "human induced pluripotent stem cell-derived cardiac progenitor cells",
  "experiment": "Quantitative PCR of heart field and cardiac markers in differentiating hiPSCs (day 0 to day 7)",
  "type": "cell-based",
  "settings": "B-27 containing insulin day 0 to day 1; qPCR day 7; vs control cells",
  "procedure": "For LV-cardiomyocyte differentiation, cardiac differentiation was performed according to the protocol published by (Lian et al., 2012, Proc Natl Acad Sci USA 109:[…]-57). Cells were dissociated with StemPro Accutase Cell Dissociation Reagent at 37° C. for 5 minutes. HESCs were seeded on Matrigel-coated 24-well plates (Corning) in StemFlex Medium supplemented with 10 μmol/[…] were seeded on iMatrix-511-coated 12-well plates (Corning) in StemFit A[…] supplemented with 10 μmol/[…] at seeding densities of 1×10^5 cells/cm^2 for hESCs and 1.25-2.5×10^4 cells/cm^2 for hiPSCs. Cells were cultured for 4 days until the start of differentiation (day 0). On day 0, the medium was changed to RPMI 1640 Medium (Thermo Fisher Scientific) supplemented with B-27 Supplement minus insulin (Thermo Fisher Scientific) (RPMI/B27-insulin) or B-27 Supplement with insulin (Thermo Fisher Scientific), and 12 μmol/L CHIR 99021 (SelleckChem, Houston, TX, United States), and the cells incubated in this medium for 24 h (day 1). On day 1, the medium was changed to RPMI/B27-insulin. […] PowerUpTM SYBR Green Master Mix (Thermo Fisher Scientific) and QuantStudio 1 (Thermo Fisher Scientific) were used for quantitative PCR (q-PCR), wherein q-PCR data were processed using the ΔΔCT method. […] Data were analyzed with the web-based tool of GeneGlobe Data Analysis Center (Qiagen).",
  "data": [
    {"substance": "insulin", "values": [
      {"measurement": "expression levels of FHF markers (TBX5 and HCN4)", "result": "lower expression levels"},
      {"measurement": "mRNA expression levels of SHF markers (ISL1 and CXCR4)", "result": "higher mRNA expression levels"}
    ]}
  ]
}
